We go through five compounds from patent US20220017483A1, “AMINOPYRIDINE COMPOUND, PREPARATION METHOD THEREFOR AND USE THEREOF” (SICHUAN-KELUN-BIOTECH BIOPHARMACEUTICAL CO., LTD, priority 2018, published 2022).

Read-outs that look alike come from different tables or passages of the source.

In series [1] the target is T1, A1 receptor cell membrane (human origin) (Homo sapiens, UniProt P30542).
T1 construct: purchased PerkinElmer ES-010-M400UA
T1 sequence (P30542 1-326): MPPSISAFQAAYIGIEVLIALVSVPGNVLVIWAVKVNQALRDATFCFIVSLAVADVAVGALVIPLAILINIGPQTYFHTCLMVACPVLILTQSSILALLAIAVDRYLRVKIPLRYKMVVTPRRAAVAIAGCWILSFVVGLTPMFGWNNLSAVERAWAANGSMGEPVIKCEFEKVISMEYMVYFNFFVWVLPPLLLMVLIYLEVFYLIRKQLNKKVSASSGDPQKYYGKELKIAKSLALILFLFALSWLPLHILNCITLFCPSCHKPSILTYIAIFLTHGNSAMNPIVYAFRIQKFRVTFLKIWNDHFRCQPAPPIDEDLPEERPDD
Kind of series: Competitive inhibition constant (Ki) for adenosine A1 receptor, [3H]-DPCPX radioligand binding. Particulars: [3H]-DPCPX 1.0 nM. The procedure: Experimental Example 1: Determination of the Competitive Inhibition Constant (Ki) for Adenosine A1 and A2a Receptors
[^3H]-DPCPX: PerkinElmer, NET974250UC
A1 receptor cell membrane (human origin): PerkinElmer, ES-010-M400UA
A1 test buffer: 25 mM HEPES, 5 mM MgCl2, 1 mM CaCl2, 100 mM NaCl, pH7.4
A1 washing buffer: 25 mM HEPES, 5 mM MgCl2, 1 mM CaCl2, 100 mM NaCl, pH7.4
(§1) The A1 receptor cell membrane was diluted to 0.025 μg/μl with the A1 test buffer and the A2a receptor cell membrane was diluted to 0.05 μg/μl with the A2a test buffer to obtain an A1 receptor cell membrane dilution and an A2a receptor cell membrane dilution.
(§2) The tested compound and CGS15943 were gradiently diluted with DMSO. 1 μl test compound, high-value control (0.5% DMSO), low-value control (1000 nM CGS15943) were added to a 96-well plate, wherein each well was added with 100 μl A1 receptor cell membrane dilution (containing 2.5 μg cell membrane) to obtain an A1 detection plate. Through the same steps, 100 μl A2a receptor cell membrane dilution (containing 5.0 μg cell membrane) was added to each well of a 96-well plate to obtain an A2a detection plate.
100 μl of radioisotope-labelled ligand [^3H]-DPCPX (diluted in A1 test buffer, working concentration 1.0 nM) was added to the A1 detection plate, and 100 μl of radioisotope-labelled ligand [^3H]-CGS-21680 (diluted in A2a test buffer, working concentration 6.0 nM) was added to the A2a detection plate. The A1 and A2a detection plates were sealed with a tap, and incubated at room temperature for 1 h and 2 h, respectively.
(§3) Unifilter-96 GF/C filter plate was prepared. The Unifilter-96 GF/C filter plate was added with 50 μl 0.3% PEI in each well, and incubated at room temperature for no less than 0.5 h.
(§4) After the incubation, the reaction solutions in the A1 detection plate and the A2a detection plate were transferred to two Unifilter-96 GF/C filter plates. The filter plates were washed with the corresponding pre-cooled washing buffers, then oven dried. After sealing the bottom of the filter plates, 50 μl of Microscint 20 cocktail scintillation fluid was added. After sealing the top of the filter plates, the plates were read in the counter MicroBeta2 Reader.
(§5) Data analysis: The inhibition rate was calculated according to the following formula:
(§6) Inhibition rate %=100−(the signal value of the tested wells−the signal average of the low-value control)/(the signal average of the high-value control−the signal average of the low-value control)*100.
(§7) IC50 was fitted by EXCEL XLfit. The competitive inhibition constant (Ki) was calculated according to the formula: Ki=IC50/(1+the concentration of the isotope-labelled ligands/Kd); Kd is the dissociation constant of the isotope-labeled ligands.

In series [2] the target is T2, A2a receptor cell membrane (human origin) (Homo sapiens, UniProt P29274).
T2 construct: purchased PerkinElmer RBHA2AM400UA
T2 sequence (P29274 whole entry): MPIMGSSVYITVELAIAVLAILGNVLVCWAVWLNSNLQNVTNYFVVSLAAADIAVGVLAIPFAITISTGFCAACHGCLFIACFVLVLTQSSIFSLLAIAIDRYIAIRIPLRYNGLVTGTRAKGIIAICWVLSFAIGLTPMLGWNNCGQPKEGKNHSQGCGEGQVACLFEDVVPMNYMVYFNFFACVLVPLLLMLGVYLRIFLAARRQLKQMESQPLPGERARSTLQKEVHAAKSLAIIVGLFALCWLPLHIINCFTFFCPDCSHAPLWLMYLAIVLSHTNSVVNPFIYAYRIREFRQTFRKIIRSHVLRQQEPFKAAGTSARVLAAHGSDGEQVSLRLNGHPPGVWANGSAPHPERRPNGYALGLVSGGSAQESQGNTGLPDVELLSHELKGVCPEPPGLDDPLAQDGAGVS
The series is described as follows: Competitive inhibition constant (Ki) for adenosine A2a receptor, [3H]-CGS-21680 radioligand binding. The following applies: for Ki(A1)/Ki(A2a): selectivity ratio A1 over A2a. The procedure: A2a receptor cell membrane (human origin): PerkinElmer, RBHA2AM400UA
A2a test buffer: 50 mM Tris-HCl, 10 mM MgCl2, 1 mM EDTA, pH7.4
as §1, §2
The A1 and A2a detection plates were sealed with a tap, and incubated at room temperature for 1 h and 2 h, respectively.
as §3, §4, §5, §6, §7

Series [3] in a line: Pharmacokinetics in rats, intravenous injection (IV). The following applies: male, SD, rat, 1 mg/kg, plasma. The series is classed as in vivo. The procedure: (§8) Experimental Example 2: Pharmacokinetics (PK) and Brain Tissue Distribution Study in Rats
(§9) The compounds of the present invention and control compound 2 were administered to male SD rats by intravenous injection (IV) and intragastric administration (PO) respectively to study the pharmacokinetic characteristics.
(§10) The compounds of the present invention and control compound 2
(§11) synthesized according to the prior art process) were administered by IV and PO. IV and PO dosages were 1 mg/kg and 5 mg/kg, respectively. The vehicle for the IV administration of the compounds of the present invention was a mixture of 5% DMSO:5% Solutol (polyethylene glycol-15 hydroxystearate):90% physiological saline; and the vehicle for the IV administration of control compound 2 was a mixture of 10% DMSO:10% Solutol (polyethylene glycol-15 hydroxystearate):80% physiological saline. The vehicle for the PO administration of the compounds was 0.5% MC (sodium methylcellulose). Blood was collected before IV administration (0 h), and at time points of 0.083, 0.25, 0.5, 1, 2, 4, 6, 8, 24 h or longer (for example, adding time points of 32 and 48 h) after IV administration; and blood was collected before PO administration (0 h), and at time points of 0.25, 0.5, 1, 2, 4, 6, 8, 24 h or longer (for example, adding time points of 32 and 48 h) after PO administration. EDTA.K2 was used for anticoagulation of the blood, and a plasma sample was obtained after centrifugation. Brain tissue homogenates were taken at 0.25, 0.5, 1, and 8 hours after PO administration (3 animals for each time point). The plasma samples and brain tissue homogenate samples were stored at −80° C. Plasma samples and brain tissue homogenates were subjected to analysis by LC-MS/MS, after protein precipitation. The pharmacokinetic parameters were calculated by using non-compartmental model with WinNonlin 6.3 software.

The nature of series [4]: Pharmacokinetics and brain tissue distribution in rats, intragastric administration (PO). The series is classed as in vivo, male SD rats. The following applies: rat; for bioavailability / AUC(0-t): male, SD, plasma; for bioavailability: po, orally administered 5 mg/kg compared to intravenous 1 mg/kg; for AUC(0-t) / Plasma AUClast/Brain AUClast / AUClast (brain) / capability to penetrate the blood-brain barrier / exposure to brain tissue (in words): PO, 5 mg/kg; for AUC(0-t): read-out: AUClast (plasma); for AUClast (brain): brain tissue homogenate. On the procedure:
as §8, §9, §10, §11

Setting [5] is: human A2a receptor cell membrane, [3H]-CGS-21680 6.0 nM, read-out: Ki(A2a).

In series [1], `Cc1ncnc2ccc(-c3cc(C(N)=O)c(N)nc3-c3ccc(F)cc3)cc12` [Compound 6, 2-amino-6-(4-fluorophenyl)-5-(4-methylquinazolin-6-yl)nicotinamide] yielded a Ki of 2190 nM. Besides, in series [2] (setting [5]), the Ki was determined as 3.4 nM. Moreover, the “Ki(A1)/Ki(A2a)” value in series [2] is 644.6. In addition, in series [3], the AUC(0-t) was 6660 ng·h/mL and the Cmax worked out at 1250 ng/mL. Besides, in series [4], the bioavailability worked out at 73.9%, the AUC(0-t) is 24700 ng·h/mL, the “Plasma AUClast/Brain AUClast” value is recorded as 73/1 and the “AUClast (brain)” value was 337 (h*ng/g,.

`CNC(=O)Cn1cc(-c2cc(-c3ccc4ncnc(C)c4c3)c(-c3ccc(F)cc3)nc2N)cn1` [Compound 19, 2-(4-(2-amino-6-(4-fluorophenyl)-5-(4-methylquinazolin-6-yl)-pyridin-3-yl)-1H-pyrazol-1-yl)-N-methylacetamide] yielded a Ki in series [1] of 513 nM. In addition, in series [2] (setting [5]), the Ki came out at 9.9 nM. Further, in series [2], the “Ki(A1)/Ki(A2a)” value is recorded as 51.8. In series [3], this compound had an AUC(0-t) of 3940 ng·h/mL and a Cmax of 2960 ng/mL. In series [4], the bioavailability was determined as 95.2%, the AUC(0-t) came out at 18800 ng·h/mL, the “Plasma AUClast/Brain AUClast” value is given as 776/1 and the “AUClast (brain)” value is reported as 24.2 (h*ng/g,.

The compound `Cc1ncnc2ccc(-c3cc(-c4cnn(CCC(N)=O)c4)c(N)nc3-c3ccc(F)cc3)cc12` [Compound 20, 3-(4-(2-amino-6-(4-fluorophenyl)-5-(4-methylquinazolin-6-yl)-pyridin-3-yl)-1H-pyrazol-1-yl)propionamide] displayed an inhibition constant Ki in series [1] of 963 nM. In series [2], the Ki was determined as 14 nM and the “Ki(A1)/Ki(A2a)” value was 68.8. Further, in series [3], the AUC(0-t) worked out at 2530 ng·h/mL and the Cmax was 3330 ng/mL. In addition, in series [4], the AUC(0-t) was 1900 ng·h/mL, the “capability to penetrate the blood-brain barrier / exposure to brain tissue (in words)” value was “only very low exposure to brain tissue” and the “AUClast (brain)” value is recorded as “undetectable”.

In series [1], `Cc1ncnc2ccc(-c3cc(-c4cnn(CC(C)(C)O)c4)c(N)nc3-c3ccc(F)cc3)cc12` [Compound 21, 1-(4-(2-amino-6-(4-fluorophenyl)-5-(4-methylquinazolin-6-yl)-pyridin-3-yl)-1H-pyrazol-1-yl)-2-methylpropan-2-ol] came in with a Ki of 1420 nM. In series [2] (setting [5]), the inhibitory constant (Ki) came to 13.2 nM. Besides, in series [2], the “Ki(A1)/Ki(A2a)” value is recorded as 108.0. Besides, in series [3], the AUC(0-t) is 2340 ng·h/mL and the peak concentration (Cmax) was determined as 1340 ng/mL. For the same compound, in series [4], the bioavailability was 68.5%, the AUC(0-t) is 8010 ng·h/mL, the “Plasma AUClast/Brain AUClast” value was 331/1 and the “AUClast (brain)” value is 24.2 (h*ng/g,.

Consider `Cc1ncnc2ccc(-c3nnc(N)nc3-c3ccc(F)cc3)cc12` [Control compound 2, reference compound], for which, in series [3], the AUC(0-t) came to 518 ng·h/mL and the highest concentration (Cmax) turned out to be 913 ng/mL. For the same compound, in series [4], the bioavailability amounted to 46.5%, the AUC(0-t) was 1200 ng·h/mL, the “capability to penetrate the blood-brain barrier / exposure to brain tissue (in words)” value is listed as “significantly stronger” and the “AUClast (brain)” value was 1013 (h*ng/g,.

What is called Ki is the equilibrium dissociation constant of an inhibitor or competing ligand from its target. In general, Cmax refers to the maximum level reached in the sampled fluid or tissue. What is called bioavailability is the share of a dose that reaches the circulation, judged against a reference dose that is usually intravenous.
